Among the data in US9624217B2, “Dihydropyrrolopyridine inhibitors of ROR-gamma” (Vitae Pharmaceuticals, Inc., priority 2014, dated 2017) are Ki and IC50 values, retold here.

The structures appear in SMILES notation. pIC50, pKi: −log10 of the molar value.

In assay [1] the target is recombinant RORγ Ligand Binding Domain (LBD) (Homo sapiens (Human), UniProt P51449). Nature of the assay: Radio-Ligand RORγ Binding Assay (Assay 1). As to conditions: SPA competition with 25-hydroxy [26,27-3H]-cholesterol, cell-free; read-out: RORγ Binding Ki Range. How it is done: Radio-Ligand RORγ Binding Assay (Assay 1)
Compounds of the present invention were tested for ability to bind to RORγ in a cell-free competition assay with commercially available radio-ligand (RL), 25-hydroxy [26,27-^3H]-cholesterol (PerkinElmer, Cat. #NET674250UC), for a ligand binding site on a recombinant RORγ Ligand Binding Domain (LBD) protein expressed as a 6×His-Glutathione-S-Transferase (GST) fusion. […] The plate was shaken at 700 rpm for 20 min and incubated for 10 min at rt, after which 40 μL of poly-Lys YSi SPA beads (PerkinElmer, Cat. #RPNQ0010) were added to achieve 50 μg of the beads per well. The plate was incubated on an orbital shaker for 20 min and then for 10 min without agitation at rt. SPA signal for tritium beta radiation was registered on PerkinElmer Microbeta plate reader. […] The percent inhibition vs. concentration data were fit into a four-parameter model, and IC50 values were calculated from the fit as the concentrations corresponding to the inflection points on the dose-response curves.

The next assay deals with full-length RORγt (Homo sapiens (Human), UniProt P51449). Nature of the assay: RORγt 5×RORE Assay in Jurkat Cells (Assay 2). Format: cell-based. As to conditions: secreted Nanoluc luciferase 5×RORE reporter, 16-18 hrs, read-out: RORγt5X IC50 Range. How it is done: [formula] RORγt 5×RORE Assay in Jurkat Cells (Assay 2)
Compounds of the present invention were tested for RORγ inverse agonist activity in a cell-based, transcriptional activity assay. […] (Promega, Cat. #N1021) using KpnI and HindIII restriction sites. […] Luciferase activity in the conditioned supernatants was determined with NanoGlo® assay reagents (Promega, Cat. #N1130).

full-length RORγt, sequence (P51449 other isoform, or with tags, fused parts or gaps): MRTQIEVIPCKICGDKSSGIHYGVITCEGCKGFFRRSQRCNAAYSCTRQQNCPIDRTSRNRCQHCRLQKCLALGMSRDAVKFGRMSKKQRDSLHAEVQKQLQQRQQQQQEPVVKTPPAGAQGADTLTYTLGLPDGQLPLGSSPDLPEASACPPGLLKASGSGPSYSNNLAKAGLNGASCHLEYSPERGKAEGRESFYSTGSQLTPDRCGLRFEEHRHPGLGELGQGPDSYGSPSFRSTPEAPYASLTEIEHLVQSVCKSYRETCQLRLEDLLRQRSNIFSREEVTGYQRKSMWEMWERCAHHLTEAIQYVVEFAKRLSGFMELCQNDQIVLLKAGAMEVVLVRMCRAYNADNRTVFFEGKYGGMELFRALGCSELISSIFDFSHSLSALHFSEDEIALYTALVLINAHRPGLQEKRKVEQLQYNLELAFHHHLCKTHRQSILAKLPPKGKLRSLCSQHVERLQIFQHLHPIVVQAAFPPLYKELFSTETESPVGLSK
recombinant RORγ Ligand Binding Domain (LBD), sequence (P51449 269-508): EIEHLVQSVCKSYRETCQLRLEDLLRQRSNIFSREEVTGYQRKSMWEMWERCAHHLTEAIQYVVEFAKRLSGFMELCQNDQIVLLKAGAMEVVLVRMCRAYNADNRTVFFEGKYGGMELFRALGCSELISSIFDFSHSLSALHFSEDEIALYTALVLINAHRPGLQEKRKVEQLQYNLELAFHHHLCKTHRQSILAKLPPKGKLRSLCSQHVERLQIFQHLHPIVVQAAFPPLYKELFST

What is called pKi is −log10 of the Ki, conventionally taken in molar units. By pIC50 is commonly meant the negative decadic logarithm of the IC50, by convention in mol/L. Regarding `CCS(=O)(=O)c1ccc(CNC(=O)c2cnc3c(c2)CN(CC2CCC(F)(F)CC2)[C@H]3C(C)C)nc1` [Compound 43], the pKi in assay [1] was over 7.00. In addition, the pIC50 at full-length RORγt was under 6.00.
For the molecule `CCS(=O)(=O)c1ccc(CNC(=O)c2cnc3c(c2)CN(C[C@H]2CC[C@H](OC)CC2)[C@H]3C(C)C)cc1` [Compound 45], the pKi in assay [1] is over 7.00. On full-length RORγt, the pIC50 is over 7.00.
In the case of `CCS(=O)(=O)c1ccc(CNC(=O)c2cnc3c(c2)CN(C(=O)OC(C)(C)C)[C@H]3C(C)C)nc1` [Compound 46, Tert-butyl (S)-3-(((5-(ethylsulfonyl)pyridin-2-yl)methyl)carbamoyl)-7-isopropyl-5,7-dihydro-6H-pyrrolo[3,4-b]pyridine-6-carboxylate], the negative logarithm of the Ki (pKi) in assay [1] is over 7.00. In addition, the pIC50 at full-length RORγt is under 6.00.
The matching figures for `CCS(=O)(=O)c1ccc(CNC(=O)c2cnc3c(c2)CN(CC2CCN(CC(F)(F)F)CC2)[C@H]3C(C)C)cc1` [Compound 49]: over 7.00 and over 7.00.
On to `CCS(=O)(=O)c1ccc(CNC(=O)c2cnc3c(c2)CN(Cc2ccc4c(c2)OC(F)(F)O4)[C@H]3C(C)C)nc1` [Compound 54], for which the pKi in assay [1] is over 7.00. For the same molecule, the pIC50 at full-length RORγt was over 7.00.
Take `CCS(=O)(=O)c1ccc(CC(=O)Nc2cnc3c(c2)CN(C[C@H]2CC[C@H](C(F)(F)F)CC2)[C@H]3C(C)C)cc1` [Compound 55]: the pKi in assay [1] was over 7.00. Besides, the pIC50 on full-length RORγt was over 7.00.
As for `CCS(=O)(=O)c1ccc(CC(=O)Nc2cnc3c(c2)CN(Cc2ccc(C#N)cc2)[C@H]3C(C)C)cc1` [Compound 57], in assay [1], the pKi was over 7.00. Further, the pIC50 at full-length RORγt was over 7.00.
On to `CCS(=O)(=O)c1ccc(CC(=O)Nc2cnc3c(c2)CN(Cc2ccc(C(F)(F)F)cc2)[C@H]3C(C)C)cc1` [Compound 58], for which the pKi in assay [1] is over 7.00. In addition, on full-length RORγt, the pIC50 is over 7.00.
For `CC(C)[C@H]1c2ncc(C(=O)NCC3CCN(S(C)(=O)=O)CC3)cc2CN1Cc1ccc(C(F)(F)F)cc1` [Compound 63], the pKi in assay [1] was over 7.00. Also, the pIC50 at full-length RORγt was 6.00 to 7.00.
`CC(C)[C@H]1c2ncc(C(=O)NCc3ccc(C#N)cc3)cc2CN1Cc1ccc(C(F)(F)F)cc1` [Compound 64]: the pKi in assay [1] was over 7.00. Moreover, the pIC50 at full-length RORγt is 6.00 to 7.00.
For `CNS(=O)(=O)c1ccc(CNC(=O)c2cnc3c(c2)CN(Cc2ccc(C(F)(F)F)cc2)[C@H]3C(C)C)cc1` [Compound 67], the pKi in assay [1] was over 7.00. In addition, the pIC50 at full-length RORγt was over 7.00.
As for `CCS(=O)(=O)N1CCC(CNC(=O)c2cnc3c(c2)CN(Cc2ccc(C(F)(F)F)cc2)[C@H]3C(C)C)CC1` [Compound 109], the pKi in assay [1] was over 7.00. In addition, the pIC50 on full-length RORγt is under 6.00.
On to `CC(C)[C@H]1c2ncc(C(=O)NC[C@H]3CC[C@H](CC(=O)O)CC3)cc2CN1Cc1ccc(C(F)(F)F)cc1` [Compound 139], for which the pKi in assay [1] was over 7.00. For the same molecule, the pIC50 at full-length RORγt was 6.00 to 7.00.
On to `CCS(=O)(=O)c1cnc(CNC(=O)c2cnc3c(c2)CN(Cc2ccc(C(F)(F)F)cc2)[C@H]3C(C)C)c(C)c1` [Compound 142], for which the pKi in assay [1] is over 7.00. Further, the pIC50 at full-length RORγt was over 7.00.
On to `CCS(=O)(=O)c1cnc(CNC(=O)c2cnc3c(c2)CN(Cc2ccc(C(F)(F)F)cc2)[C@H]3C(C)C)c(F)c1` [Compound 144], for which the pKi in assay [1] was over 7.00. Further, the pIC50 at full-length RORγt was over 7.00.
For `CC(C)[C@H]1c2ncc(C(=O)N[C@@H](CO)c3ccc(C#N)cc3)cc2CN1Cc1ccc(C(F)(F)F)cc1` [Compound 149], the pKi in assay [1] was over 7.00. For the same molecule, at full-length RORγt, the pIC50 was 6.00 to 7.00.
Consider `CC(C)[C@H]1c2ncc(C(=O)NCc3ccc(C#N)cn3)cc2CN1Cc1ccc(C(F)(F)F)cc1` [Compound 155], for which, in assay [1], the negative logarithm of the Ki (pKi) is 6.00 to 7.00. The pIC50 at full-length RORγt was under 6.00.
